According to patent US12319655B2, “RAF kinase inhibitors and methods of use thereof” (Deciphera Pharmaceuticals, LLC, priority 2021, dated 2025):

Assays:
[1] = target: B-Raf kinase (SEQ. ID NO: 2) (Homo sapiens (Human), UniProt P15056); test: Biochemical Assay for B-Raf (1); conditions: Table J, assay version (1); read-out: BRAF (1) IC50
How it was run: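 Continuous PK/LDH-coupled NADH oxidation assay, A340 read for 6 h at 30° C., with 0.13 nM B-Raf, 30.1 nM MEK substrate and 1 mM ATP in Tris pH 7.5, MgCl2, DTT, detergents, 1% DMSO. Rate taken from 4–5 h window; percent inhibition vs no-compound and known-inhibitor controls; four-parameter fit gives IC50.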

[2] = target: B-Raf (V600E) (SEQ. ID NO: 4) kinase (Homo sapiens (Human), UniProt P15056, V600E); test: Biochemical Assay for B-Raf (V600E) (1); conditions: Table J, BRAF V600E, assay version (1); read-out: BRAF VE (1) IC50
How it was run: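 Coupled pyruvate kinase/lactate dehydrogenase assay: 0.03 nM B-Raf V600E, 30.1 nM MEK, 1 mM ATP, pH 7.5 Tris/MgCl2 buffer, 1% DMSO. NADH oxidation followed at 340 nm for 6 h at 30 °C; rate from 3–4 h converted to percent inhibition, IC50 by four-parameter fit.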

WM3928 cells = test: WM3928 Cell Proliferation Assay (1); type: cell-based
How it was run: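 IC50 was derived from resazurin fluorescence (ex 540, em 600 nm) after a 6–7 h dye incubation. Before that, cells had 67–72 h of compound exposure at 37 °C, 5% CO2.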

H2405 cells = test: H2405 Cell Proliferation Assay (1); type: cell-based; conditions: Homo sapiens, NCI-H2405
How it was run: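 Viability was read by resazurin reduction (ex 540 nm, em 600 nm; 5-6 h with 40 μL of 440 μM stock) after 67-72 h compound exposure at 37 °C.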

B-Raf kinase (SEQ. ID NO: 2), sequence (P15056 416-766): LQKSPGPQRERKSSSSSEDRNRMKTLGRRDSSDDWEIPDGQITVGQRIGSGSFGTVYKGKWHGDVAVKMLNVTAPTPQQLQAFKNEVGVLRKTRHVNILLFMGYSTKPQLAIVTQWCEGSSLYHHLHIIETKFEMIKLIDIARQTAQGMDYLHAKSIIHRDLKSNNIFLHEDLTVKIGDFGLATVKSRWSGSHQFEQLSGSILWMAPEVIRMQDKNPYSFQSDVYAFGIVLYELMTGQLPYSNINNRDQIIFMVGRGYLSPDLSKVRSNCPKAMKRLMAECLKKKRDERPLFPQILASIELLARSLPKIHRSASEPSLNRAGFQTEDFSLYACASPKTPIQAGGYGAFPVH
B-Raf (V600E) (SEQ. ID NO: 4) kinase, sequence (P15056 416-766 V600E): as the sequence (P15056 416-766) above, with V185E counted along it

IC50 [1]	IC50 [2]	IC50 (H2405 cells)	SMILES	IC50 (WM3928 cells)
≤ 100 nM	≤ 100 nM	≤ 100 nM	Cc1ccc(NC(=O)c2cc(CN(C)C)cc(C(F)(F)F)c2)cc1-c1cncc(-c2ccnc(NC(=O)C3CC3)c2)n1 [Example 185]	≤ 100 nM
100 to 500 nM	≤ 100 nM	100 to 500 nM	CNC(=O)c1cc(-c2cncc(-c3cc(NC(=O)c4ccnc(C(C)(C)C#N)c4)ccc3C)c2)ncn1 [Example 235]	≤ 100 nM
≤ 100 nM	≤ 100 nM	≤ 100 nM	Cc1ccc(NC(=O)c2ccnc(C(C)(C)C#N)c2)cc1-c1ccnc(-c2ccnc(NC(=O)C3(C#N)CC3)c2)n1 [Example 241]	≤ 100 nM
